# Laboratory results as given in patent US20170073324A1, “Bifidenone Compositions and Methods of Use” (Sequoia Sciences, Inc., priority 2015, published 2017).
# Read-outs that look alike come from different tables or passages of the source.
# Columns and labels:
# [1] = test system: NCI-H460 (large cell lung carcinoma) cells; experiment: Antiproliferation assay (CELLTITER 96 AQueous, 72 h); format: cell-based; settings: Homo sapiens
# Method: Bifidenone was tested for its ability to inhibit the proliferation of human cancer cells in vitro as described in the following paragraph. IC50 is defined as the concentration of compound necessary to achieve 50% of the maximum growth inhibition.
# For the antiproliferation assay, NCI-H460 (large cell lung carcinoma) or M14 (amelanotic melanoma) cells were grown in RPMI-1640 with 10% FBS supplemented with L-glutamine and HEPES. Cells were seeded into 96-well plates at 5×10^2 to 5×10^4 cells/well and allowed to adhere overnight; the medium was then removed. A stock solution of test compound in DMSO was diluted in medium to generate a series of working solutions. Aliquots (100 μL) of the working solutions were then added to the appropriate test wells to expose cells to the final concentrations of compound in a total volume of 100 μL. Seven different concentrations were tested, with 2-5 wells per concentration. Camptothecin was used as a positive control; wells containing vehicle without compound were used as negative controls. Plates were kept for 72 h in a 37° C., 5% CO2 incubator. After incubation, viable cells were detected with the CELLTITER 96 AQueous Non-Radioactive Cell Proliferation Assay (Promega), and IC50 values were determined using GraphPad Prism 5 software.
# [2] = test system: tubulin; experiment: In vitro tubulin polymerization assay; format: biochemical; settings: absorbance readout, FIG. 3
# Method: To test the hypothesis that bifidenone inhibits cell proliferation by interfering with microtubule dynamics, it was tested in an in vitro tubulin polymerization assay. FIG. 3 illustrates inhibition of tubulin polymerization by bifidenone. Increased absorbance corresponds to increased polymerization.
# [3] = test system: NCI-H460 lung cancer cells; experiment: Cell cycle analysis (propidium iodide, flow cytometry); format: cell-based, human; settings: NCI-H460, 1, 2, or 3× the IC50 for 6, 18, or 24 h
# Method: Antitubulin agents typically interfere with mitosis by disrupting the microtubule dynamics necessary for cell division. […] Cells were then treated with propidium iodide and analyzed using flow cytometry.
# [4] = test system: NCI-H460 cells; experiment: Western blot analysis of G2/M markers; format: cell-based, human; settings: NCI-H460, 21 h
# Method: Nocodazole is known to cause G2/M arrest. Cell lysates were analyzed by western blot using the antibodies indicated on the left. Individual protein bands are designated on the right.
# [5] = test system: caspases 3 and 7 in NCI-H460 lung cancer cells; experiment: Caspase 3/7 luminescent apoptosis assay; format: cell-based, human; settings: NCI-H460, varying concentrations
# Method: FIG. 6 illustrates Caspase assay. Enzyme activity of caspases 3 and 7 was determined using a luminescent assay. NCI-H460 lung cancer cells were treated with varying concentrations of bifidenone or the known antitubulin agents paclitaxel or colchicine. The readout of relative light units is proportional to total caspase 3 and 7 activity.
# [6] = test system: PARP and caspase-7; experiment: Western blot of PARP and caspase-7 cleavage; format: cell-based; settings: FIG. 7
# [7] = test system: colchicine binding site of tubulin; experiment: Ultrafiltration-based tubulin competition assay; settings: free ligand by LC/MS
# Source text: (§1) In order to determine the binding site of bifidenone on tubulin, a published ultrafiltration-based competition assay was used. In this assay, tubulin is allowed to bind with a known ligand, and then free ligand is separated by ultrafiltration and analyzed by LC/MS. In the presence of a competitor, the concentration of free ligand increases. […] FIG. 8 illustrates tubulin competition assay. Each graph depicts the amount of unbound compound detected in the presence of varying concentrations of competitors. Known competitors were used as positive controls: podophyllotoxin for the colchicine site (left), vinblastine for the vincristine site (center), and docetaxel for the paclitaxel site (right). Amounts of free compound are expressed as percentages normalized to the amount of free compound detected in the presence of 100 μM known competitor.
# [8] = test system: paclitaxel binding site of tubulin; experiment: Ultrafiltration-based tubulin competition assay; settings: free ligand by LC/MS
# Source text: as §1
# [9] = Mouse plasma concentration after IP injection; format: in vivo, mice
# Method: The bioavailabilities of certain compounds were examined in mice. Administration of the compounds was performed by intraperitoneal (IP) injection using a vehicle as known to those skilled in the art. To measure compound concentrations in plasma, blood is collected by cardiac puncture at a specified time after dosing. It is then centrifuged in a plasma separator tube with NaEDTA/NaF as the anticoagulant, and the resulting plasma is stored at −80° C. For analysis, an internal standard is added to a 200 μL aliquot of plasma, and the aliquot is extracted with ethyl acetate. The ethyl acetate extract is analyzed by LC/MS and quantitated using a standard curve prepared by adding known amounts of test compound and internal standard to 200 μL aliquots of blank mouse plasma.
# Many vehicles can be used to examine bioavailability. Prior to administration, each vehicle was optimized based on compound solubility according to the formulation research conducted by Uckun et at (Uckun, F. M., Tibbles, H., Erbeck, D., Venkatachalam, T. K., Qazi, S., 2007). In vivo pharmacokinetics and toxicity of a novel hydrophilic oral formulation of the potent non-nucleoside reverse transcriptase inhibitor compound N′-[2-(2-thiophene)ethyl]-N′-[2-(5-bromopyridyl)]-thiourea (HI-443). Arzneimittelforschung 57, 218-226.). […] The concentration of PEG400 is modulated depending upon solubility of the compounds and the amount of water phase added.
# With larger injections (75-100 mg/kg), plasma concentrations were >4 times the IC50 at 6 h.
# [10] = Epimerization by TFA in HPLC solvents; format: physicochemical; settings: TFA (0.05%) in HPLC solvents
# Method: To obtain additional bifidenone for antiproliferation assays, the remaining material from the Beilschmiedia specimen was fractionated. […] Consequently, future isolations were performed without TFA in the semipreparative steps. Ultimately, 79 μg of bifidenone was isolated.
smiles,measurement,setting,value
"C=CC[C@H]1C[C@]2([C@@H](C)Cc3ccc(OC)c(OC)c3)OCOC2=CC1=O [bifidenone, (6S,7aR)-6-Allyl-7a-((S)-1-(3,4-dimethoxyphenyl)propan-2-yl)-7,7a-dihydrobenzo[d][1,3]dioxol-5(6H)-one]",IC50,"[1]; NCI-H460, 72 h, read-out: IC50 against NCI-H460",360 nM
same,IC50,"[1]; NCI-H460, as restated in Example VII, read-out: IC50 against NCI-H460 human lung cancer cells",360 nM
same,inhibition of tubulin polymerization,[2],inhibits tubulin polymerization in a dose-dependent manner
same,cell cycle effect,[3],causes arrest in the G2/M phase of the cell cycle
same,"protein expression and phosphorylation patterns (Histone H3 Ser10, Myt1, Aurora A/B/C, cdc2 Tyr15)",[4],consistent with G2/M arrest
same,apoptosis by enzymatic activity of caspases 3 and 7,[5],undergo apoptosis
same,cleavage of caspase-7 and PARP,[6],cleavage of caspase-7 and PARP occurred
same,competition for the colchicine binding site,[7],competes for the colchicine binding site
same,competition for the paclitaxel binding site,[8],weakly for the paclitaxel binding site
same,change of plasma concentration with vehicle,[9]; initial formulation diluted with up to 20% water,not diminished
same,concentration at 1 h,"[9]; mouse, plasma, 1 h post-injection, 40 mg/kg IP, vehicle 40% propylene glycol, 20% TWEEN-20, 20% PEG400, 20% ethanol",> 360 nM
same,change of plasma levels with vehicle,[9]; propylene glycol decreased to 25%,diminished
same,change of plasma levels with vehicle,[9]; propylene glycol increased to 45% and TWEEN-20 decreased to <3%,increased or were not diminished
same,stability to TFA,[10],prone to epimerization
